The values below come from patent US12139492B2 (Endotarget Inc., priority 2021, dated 2024).

Holding throughout (type): cell-based
One assay deals with Mino cells. Description: Antiproliferative effect, MTS cell viability assay, Mino cells. Conditions: Homo sapiens, MINO, Mino mantle cell lymphoma cells; read-out: IC50 (anti-proliferation) Mino cells. The method in brief: (§1)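 Tested at six concentrations (0 to 10 μM in tenfold steps), 72 h; viability by MTS, A490.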
Another assay has as its system JeKo-1 cells. As to the kind of experiment: Antiproliferative effect, MTS cell viability assay, JeKo-1 cells. Conditions: Homo sapiens; JeKo-1 mantle cell lymphoma cells; read-out: IC50 (anti-proliferation) JeKO-1 cells. The essentials:
as §1

In the next assay the target is BTK (Homo sapiens, UniProt Q06187). As to the kind of experiment: BTK degradation, DC50 and Dmax of Table 1 (cell line not given). More on the design: endogenous in cells. The conditions noted are these: for DC50: concentration giving 50% reduction of BTK expression level.

SMILES strings stand for the structures. A value given as a limit tells only on which side of the number the result lay.

Sequence of BTK (Q06187 whole entry): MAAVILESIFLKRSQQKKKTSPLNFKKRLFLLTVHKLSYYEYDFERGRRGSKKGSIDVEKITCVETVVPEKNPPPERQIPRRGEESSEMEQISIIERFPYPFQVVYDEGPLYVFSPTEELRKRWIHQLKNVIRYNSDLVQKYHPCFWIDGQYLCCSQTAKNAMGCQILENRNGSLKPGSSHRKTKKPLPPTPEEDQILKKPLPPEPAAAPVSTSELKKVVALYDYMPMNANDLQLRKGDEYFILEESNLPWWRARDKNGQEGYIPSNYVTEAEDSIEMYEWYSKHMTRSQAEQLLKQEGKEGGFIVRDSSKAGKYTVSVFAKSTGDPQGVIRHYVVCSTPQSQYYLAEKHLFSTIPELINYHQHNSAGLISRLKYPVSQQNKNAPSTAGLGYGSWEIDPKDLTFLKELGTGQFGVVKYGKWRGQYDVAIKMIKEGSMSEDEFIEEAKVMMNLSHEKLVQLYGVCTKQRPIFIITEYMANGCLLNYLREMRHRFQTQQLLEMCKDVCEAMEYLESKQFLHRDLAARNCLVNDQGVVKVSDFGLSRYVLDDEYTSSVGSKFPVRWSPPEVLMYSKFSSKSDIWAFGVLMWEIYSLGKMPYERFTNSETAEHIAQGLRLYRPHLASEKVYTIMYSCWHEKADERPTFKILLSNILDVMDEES

On to `Nc1ncnc2c1c(-c1ccc(Oc3ccccc3)cc1)nn2[C@@H]1CCCN(CC2CCN(CC3CCN(c4ccc5c(c4)CN(C4CCC(=O)NC4=O)C5=O)CC3)CC2)C1` (stereo partly drawn) [Compound 130, 3-(5-(4-((4-(((R)-3-(4-amino-3-(4-phenoxyphenyl)-1H-pyrazolo[3,4-d]pyrimidin-1-yl)piperidin-1-yl)methyl)piperidin-1-yl)methyl)piperidin-1-yl)-1-oxoisoindolin-2-yl)piperidine-2,6-dione], for which the IC50 with Mino cells lay in the range of 1000 to 10000 nM. In addition, in the assay on JeKo-1 cells, the IC50 lay in the range of 1000 to 10000 nM. On BTK, the Dmax is over 90% and the DC50 fell in the range of 10 to 50 nM.
For the compound `Nc1ncnc2c1c(-c1ccc(Oc3ccccc3)cc1)nn2[C@@H]1CCCN(CC2CCN(CCC3CCN(c4ccc5c(c4)C(=O)N(C4CCC(=O)NC4=O)C5=O)CC3)CC2)C1` (stereo partly drawn) [Compound 131], the IC50 in the assay with Mino cells fell in the range of 1000 to 10000 nM. Also, the IC50 in the assay with JeKo-1 cells was in the range of 1000 to 10000 nM. At BTK, this compound returned a Dmax of over 75% and a DC50 of 10 to 50 nM.
On to `Nc1ncnc2c1c(-c1ccc(Oc3ccccc3)cc1)nn2[C@@H]1CCCN(CC2CCN(CCC3CCN(c4ccc5c(c4)CN(C4CCC(=O)NC4=O)C5=O)CC3)CC2)C1` (stereo partly drawn) [Compound 132, 3-(5-(4-(2-(4-(((R)-3-(4-amino-3-(4-phenoxyphenyl)-1H-pyrazolo[3,4-d]pyrimidin-1-yl)piperidin-1-yl)methyl)piperidin-1-yl)ethyl)piperidin-1-yl)-1-oxoisoindolin-2-yl)piperidine-2,6-dione], for which the IC50 with Mino cells and with JeKo-1 cells was 1000 to 10000 nM throughout. Moreover, the Dmax at BTK is over 90%. The same compound displayed a 50% degradation concentration (DC50) at BTK of 10 to 50 nM.
On to `Nc1ncnc2c1c(-c1ccc(Oc3ccccc3)cc1)nn2[C@@H]1CCCN(CC2CCN(CCN3CCN(c4ccc5c(c4)C(=O)N(C4CCC(=O)NC4=O)C5=O)CC3)CC2)C1` (stereo partly drawn) [Compound 133, 5-(4-(2-(4-(((R)-3-(4-amino-3-(4-phenoxyphenyl)-1H-pyrazolo[3,4-d]pyrimidin-1-yl)piperidin-1-yl)methyl)piperidin-1-yl)ethyl)piperazin-1-yl)-2-(2,6-dioxopiperidin-3-yl)isoindoline-1,3-dione], for which the IC50 with Mino cells is under 1000 nM. Further, the IC50 in the assay with JeKo-1 cells fell in the range of 1000 to 10000 nM. At BTK, this compound came in with a Dmax of over 90% and a 50% degradation concentration (DC50) of 10 to 50 nM.
On to `Nc1ncnc2c1c(-c1ccc(Oc3ccccc3)cc1)nn2[C@@H]1CCCN(CC2CCN(CCN3CCN(c4ccc5c(c4)CN(C4CCC(=O)NC4=O)C5=O)CC3)CC2)C1` (stereo partly drawn) [Compound 134, 3-(5-(4-(2-(4-(((R)-3-(4-amino-3-(4-phenoxyphenyl)-1H-pyrazolo[3,4-d]pyrimidin-1-yl)piperidin-1-yl)methyl)piperidin-1-yl)ethyl)piperazin-1-yl)-1-oxoisoindolin-2-yl)piperidine-2,6-dione], for which the IC50 in the assay on Mino cells is 1000 to 10000 nM. Further, the IC50 in the assay on JeKo-1 cells was 1000 to 10000 nM. On BTK, the Dmax was over 75% and the half-maximal degradation concentration (DC50) was 10 to 50 nM.
Turning to `Nc1ncnc2c1c(-c1ccc(Oc3ccccc3)cc1)nn2[C@@H]1CCCN(CC2CCN(CCN3CCC(c4ccc5c(c4)C(=O)N(C4CCC(=O)NC4=O)C5=O)CC3)CC2)C1` (stereo partly drawn) [Compound 135, 5-(1-(2-(4-(((R)-3-(4-amino-3-(4-phenoxyphenyl)-1H-pyrazolo[3,4-d]pyrimidin-1-yl)piperidin-1-yl)methyl)piperidin-1-yl)ethyl)piperidin-4-yl)-2-(2,6-dioxopiperidin-3-yl)isoindoline-1,3-dione], the IC50 in the assay with Mino cells is under 1000 nM; in the assay on JeKo-1 cells it was 1000 to 10000 nM. This compound gave a Dmax on BTK of over 90%. The DC50 on BTK is under 10 nM.
Consider `Nc1ncnc2c1c(-c1ccc(Oc3ccccc3)cc1)nn2[C@@H]1CCCN(CC2CCN(CCN3CCC(c4ccc5c(c4)CN(C4CCC(=O)NC4=O)C5=O)CC3)CC2)C1` (stereo partly drawn) [Compound 136, 3-(5-(1-(2-(4-(((R)-3-(4-amino-3-(4-phenoxyphenyl)-1H-pyrazolo[3,4-d]pyrimidin-1-yl)piperidin-1-yl)methyl)piperidin-1-yl)ethyl)piperidin-4-yl)-1-oxoisoindolin-2-yl)piperidine-2,6-dione], for which the IC50 in the assay with Mino cells is under 1000 nM. In the assay with JeKo-1 cells, the IC50 lay within 1000 to 10000 nM. On BTK, the Dmax is over 75% and the DC50 is under 10 nM.
For the compound `Nc1ncnc2c1c(-c1ccc(Oc3ccccc3)cc1)nn2[C@@H]1CCCN(CC2CCN(CCCN3CCN(c4ccc5c(c4)C(=O)N(C4CCC(=O)NC4=O)C5=O)CC3)CC2)C1` (stereo partly drawn) [Compound 137, 5-(4-(3-(4-(((R)-3-(4-amino-3-(4-phenoxyphenyl)-1H-pyrazolo[3,4-d]pyrimidin-1-yl)piperidin-1-yl)methyl)piperidin-1-yl)propyl)piperazin-1-yl)-2-(2,6-dioxopiperidin-3-yl)isoindoline-1,3-dione], the IC50 in the assay with Mino cells is over 10000 nM. For the same compound, the IC50 with JeKo-1 cells is over 10000 nM. In addition, on BTK, the Dmax is over 75% and the DC50 is 10 to 50 nM.
`Nc1ncnc2c1c(-c1ccc(Oc3ccccc3)cc1)nn2[C@@H]1CCCN(CC2CCN(CCCN3CCN(c4ccc5c(c4)CN(C4CCC(=O)NC4=O)C5=O)CC3)CC2)C1` (stereo partly drawn) [Compound 138, 3-(5-(4-(3-(4-(((R)-3-(4-amino-3-(4-phenoxyphenyl)-1H-pyrazolo[3,4-d]pyrimidin-1-yl)piperidin-1-yl)methyl)piperidin-1-yl)propyl)piperazin-1-yl)-1-oxoisoindolin-2-yl)piperidine-2,6-dione]: in the assay with Mino cells, the IC50 was in the range of 1000 to 10000 nM. The IC50 in the assay with JeKo-1 cells is over 10000 nM. On BTK, this compound came in with a Dmax of over 75% and a DC50 of 10 to 50 nM.
For `Nc1ncnc2c1c(-c1ccc(Oc3ccccc3)cc1)nn2[C@@H]1CCCN(CC2CCN(CCCN3CCC(c4ccc5c(c4)C(=O)N(C4CCC(=O)NC4=O)C5=O)CC3)CC2)C1` (stereo partly drawn) [Compound 139, 5-(1-(3-(4-(((R)-3-(4-amino-3-(4-phenoxyphenyl)-1H-pyrazolo[3,4-d]pyrimidin-1-yl)piperidin-1-yl)methyl)piperidin-1-yl)propyl)piperidin-4-yl)-2-(2,6-dioxopiperidin-3-yl)isoindoline-1,3-dione], the IC50 in the assay on Mino cells was over 10000 nM. Besides, in the assay with JeKo-1 cells, the IC50 is over 10000 nM. Moreover, at BTK, the Dmax is over 75% and the DC50 is 10 to 50 nM.
Consider `Nc1ncnc2c1c(-c1ccc(Oc3ccccc3)cc1)nn2[C@@H]1CCCN(CC2CCN(CCCN3CCC(c4ccc5c(c4)CN(C4CCC(=O)NC4=O)C5=O)CC3)CC2)C1` (stereo partly drawn) [Compound 140, 3-(5-(1-(3-(4-(((R)-3-(4-amino-3-(4-phenoxyphenyl)-1H-pyrazolo[3,4-d]pyrimidin-1-yl)piperidin-1-yl)methyl)piperidin-1-yl)propyl)piperidin-4-yl)-1-oxoisoindolin-2-yl)piperidine-2,6-dione], for which, in the assay on Mino cells, the IC50 lay in the range of 1000 to 10000 nM. Also, the IC50 in the assay on JeKo-1 cells was over 10000 nM. On BTK, the Dmax was over 75% and the DC50 lay in the range of 10 to 50 nM.
On the same counts, the results for `Nc1ncnc2c1c(-c1ccc(Oc3ccccc3)cc1)nn2[C@@H]1CCCN(CC2CCN(CCCC3CCN(c4ccc5c(c4)C(=O)N(C4CCC(=O)NC4=O)C5=O)CC3)CC2)C1` (stereo partly drawn) [Compound 141, 5-(4-(3-(4-(((R)-3-(4-amino-3-(4-phenoxyphenyl)-1H-pyrazolo[3,4-d]pyrimidin-1-yl)piperidin-1-yl)methyl)piperidin-1-yl)propyl)piperidin-1-yl)-2-(2,6-dioxopiperidin-3-yl)isoindoline-1,3-dione] are 1000 to 10000 nM, 1000 to 10000 nM, over 75% and over 50 nM.
